Read-outs that look alike come from different tables or passages of the source.
Target: T1, Cbl-B (Homo sapiens, UniProt Q13191)
T1 construct: MSD-Based Assay for Degradation of Cbl-B in THP-1 Cells; endogenous in cells; host or cells: THP-1 (title) / Jurkat (protocol text)
Assay: MSD-based assay for degradation of Cbl-B in THP-1 cells
Format: cell-based
Description: MSD-Based Assay for Degradation of Cbl-B in THP-1 Cells
Assay plates were then shaken at 600 rpm for 5 minutes, followed by incubation for 24 hours in the 37° C. TC incubator. […] Cell debris was then spun down at maximum speed (about 3200 g) for 30 min and lysates frozen in the −80° C. fridge. Meanwhile, MSD plates (L15XA-3) were coated overnight at 4° C. with 1 ug/mL capture antibody (Anti-Cbl-B antibody, 246C5a and Mouse mAB, ab54362). […] Blocking buffer was 3% Blocker A (MSD, R93BA-4) in TBST. Plates were washed 3× with 150 ul/well of 1×TBST and sample lysates (70 ul/well) then added, followed by shaking for 1 hr at RT, 600 rpm. […] Plates were again washed 3× with 150 ul/well of 1×TBST, followed by addition of Secondary Detection antibody, SULFO-TAG anti-species antibody (Anti Rabbit Antibody (R32AB-5) MSD, R32AB-1) at a final concentration of 1 ug/ml and 25 uL/well, followed by shaking for 1 hr at RT, 600 rpm. Plates were again washed 3× with 150 ul/well of 1×TBST, followed by addition of 1×MSD reading buffer (MSD, R92TC-2), 150 ul/well, diluted from 4× with water.
Compound Dmax were binned into A through D as follows: A indicates >70%, B indicates 50-70%, C indicates 30-50%, D indicates <30%.

[1] = Cbl-B degradation, Jurkat cells seeded (heading: THP-1 cells), 24 hours incubation, MSD readout
[2] = Cbl-B degradation, Jurkat cells seeded (heading: THP-1 cells), 24 hours incubation, MSD readout, read-out: Dmax

T1 sequence (Q13191 whole entry): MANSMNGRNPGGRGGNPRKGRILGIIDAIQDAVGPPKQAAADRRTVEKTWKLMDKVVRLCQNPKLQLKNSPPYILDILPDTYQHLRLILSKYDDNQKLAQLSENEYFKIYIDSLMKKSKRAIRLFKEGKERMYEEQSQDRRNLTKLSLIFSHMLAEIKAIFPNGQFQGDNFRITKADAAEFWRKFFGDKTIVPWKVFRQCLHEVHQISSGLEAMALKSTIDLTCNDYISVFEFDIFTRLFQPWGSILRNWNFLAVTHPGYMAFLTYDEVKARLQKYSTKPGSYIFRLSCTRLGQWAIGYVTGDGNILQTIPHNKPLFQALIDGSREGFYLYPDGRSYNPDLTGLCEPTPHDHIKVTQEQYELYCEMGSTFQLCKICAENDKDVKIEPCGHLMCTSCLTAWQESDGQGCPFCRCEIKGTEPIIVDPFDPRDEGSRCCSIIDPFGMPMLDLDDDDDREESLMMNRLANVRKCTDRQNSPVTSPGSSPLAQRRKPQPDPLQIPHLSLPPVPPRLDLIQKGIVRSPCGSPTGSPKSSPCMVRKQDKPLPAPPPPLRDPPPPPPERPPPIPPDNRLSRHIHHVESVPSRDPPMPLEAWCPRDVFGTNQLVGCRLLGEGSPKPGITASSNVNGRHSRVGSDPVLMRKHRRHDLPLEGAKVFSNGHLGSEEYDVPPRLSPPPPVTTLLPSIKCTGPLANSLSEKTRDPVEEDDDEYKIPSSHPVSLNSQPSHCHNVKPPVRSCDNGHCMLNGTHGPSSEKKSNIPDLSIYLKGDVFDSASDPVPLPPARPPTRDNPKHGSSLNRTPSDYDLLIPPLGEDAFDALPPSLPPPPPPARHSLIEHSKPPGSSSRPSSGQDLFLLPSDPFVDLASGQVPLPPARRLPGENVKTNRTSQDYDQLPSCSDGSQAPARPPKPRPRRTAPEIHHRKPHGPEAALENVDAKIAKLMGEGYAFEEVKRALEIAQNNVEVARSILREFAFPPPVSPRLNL

SMILES | DC50 [1] [nM] | Dmax [2] [%] | Dmax (THP-1) [%]
Cn1cnnc1CC1(c2cccc(-n3cc4c(C(F)(F)F)cc(CN5CCN(C(=O)CN6CCC(CN7CCN(c8ccc9c(c8)CN([C@@H]8CCC(=O)NC8=O)C9=O)CC7)CC6)CC5)cn4c3=O)c2)COC1 (single isomer, unassigned) [Compound 131] | > 10000 | 30 to 50 | 
Cn1cnnc1CC1(c2cccc(-n3cc4c(C(F)(F)F)cc(CN5CCN(C(=O)CN6CCC(CN7CCN(c8ccc9c(c8)CN([C@H]8CCC(=O)NC8=O)C9=O)CC7)CC6)CC5)cn4c3=O)c2)COC1 (single isomer, unassigned) [Compound 132] | < 30 | 50 to 70 | 
Cn1cnnc1CC1(c2cccc(-n3cc4c(C(F)(F)F)cc(CN5CCN(CC(=O)N6CCC(CN7CCN(c8ccc9c(c8)CN([C@@H]8CCC(=O)NC8=O)C9=O)CC7)CC6)CC5)cn4c3=O)c2)COC1 (single isomer, unassigned) [Compound 133] | 30 to 300 | > 70 | 
Cn1cnnc1CC1(c2cccc(-n3cc4c(C(F)(F)F)cc(CN5CCN(CC(=O)N6CCC(CN7CCN(c8ccc9c(c8)CN([C@H]8CCC(=O)NC8=O)C9=O)CC7)CC6)CC5)cn4c3=O)c2)COC1 (single isomer, unassigned) [Compound 134] | < 30 | > 70 | 
CN(CCN(C)C(=O)c1cc(C(F)(F)F)c2cn(-c3cccc([C@H](c4nncn4C)C4CCC4)c3)c(=O)n2c1)C(=O)c1ccc(N2CCN(c3ccc4c(c3)CN([C@@H]3CCC(=O)NC3=O)C4=O)CC2)cc1 (single isomer, unassigned) [Compound 141] | > 10000 | < 30 | 
Cn1cnnc1[C@@H](c1cccc(-n2cc3c(C(F)(F)F)cc(CN4CCC[C@@H](OCCc5ccc(CN6CCN(c7ccc8c(c7)CN([C@@H]7CCC(=O)NC7=O)C8=O)CC6)cc5)C4)cn3c2=O)c1)C1CCC1 (single isomer, unassigned) [Compound 143] | 300 to 1000 | 30 to 50 | 
CN(CCOC1CCN(Cc2cc(C(F)(F)F)c3cn(-c4cccc([C@H](c5nncn5C)C5CCC5)c4)c(=O)n3c2)CC1)C(=O)c1ccc(N2C3CC2CN(c2ccc4c(c2)CN([C@@H]2CCC(=O)NC2=O)C4=O)C3)cc1 (single isomer, unassigned) [Compound 145] | > 10000 |  | 30 to 50
CN(CCOC1CCN(Cc2cc(C(F)(F)F)c3cn(-c4cccc([C@H](c5nncn5C)C5CCC5)c4)c(=O)n3c2)CC1)C(=O)c1ccc(N2C3CC2CN(c2ccc4c(c2)CN([C@H]2CCC(=O)NC2=O)C4=O)C3)cc1 (single isomer, unassigned) [Compound 146] | > 10000 | < 30 | 
CN(CCOCc1cc(C(F)(F)F)c2cn(-c3cccc([C@H](c4nncn4C)C4CCC4)c3)c(=O)n2c1)C(=O)c1ccc(N2CCN(c3ccc4c(c3)CN([C@@H]3CCC(=O)NC3=O)C4=O)CC2)cc1 (single isomer, unassigned) [Compound 147] | > 10000 | < 30 | 
CN(CCOCc1cc(C(F)(F)F)c2cn(-c3cccc([C@H](c4nncn4C)C4CCC4)c3)c(=O)n2c1)C(=O)c1ccc(N2CCN(c3ccc4c(c3)CN([C@H]3CCC(=O)NC3=O)C4=O)CC2)cc1 (single isomer, unassigned) [Compound 148] | 30 to 300 | 30 to 50 | 
Cn1cnnc1[C@@H](c1cccc(-n2cc3c(C(F)(F)F)cc(CN4CCC(C5CCN(C(=O)c6ccc(N7CCN(c8ccc9c(c8)CN([C@@H]8CCC(=O)NC8=O)C9=O)CC7)cc6)CC5)CC4)cn3c2=O)c1)C1CCC1 (single isomer, unassigned) [Compound 161] | 300 to 1000 | < 30 | 

Now from value to molecule, other results behind:

DC50 [1] [nM] | Dmax [2] [%] | SMILES | Dmax (THP-1) [%]
< 30 | > 70 | CN(CCCN1CCN(Cc2cc(C(F)(F)F)c3cn(-c4cccc([C@H](c5nncn5C)C5CCC5)c4)c(=O)n3c2)CC1)C(=O)c1ccc(N2CCN(c3ccc4c(c3)CN([C@@H]3CCC(=O)NC3=O)C4=O)CC2)cc1 (single isomer, unassigned) [Compound 123] | 
< 30 | > 70 | CN(CCCN1CCN(Cc2cc(C(F)(F)F)c3cn(-c4cccc([C@H](c5nncn5C)C5CCC5)c4)c(=O)n3c2)CC1)C(=O)c1ccc(N2CCN(c3ccc4c(c3)CN([C@H]3CCC(=O)NC3=O)C4=O)CC2)cc1 (single isomer, unassigned) [Compound 124] | 
30 to 300 | 50 to 70 | Cn1cnnc1[C@@H](c1cccc(-n2cc3c(C(F)(F)F)cc(CN4CCN(CCc5ccc(N6CCN(c7ccc8c(c7)CN([C@@H]7CCC(=O)NC7=O)C8=O)CC6)cc5)CC4)cn3c2=O)c1)C1CCC1 (single isomer, unassigned) [Compound 125] | 
< 30 | > 70 | Cn1cnnc1[C@@H](c1cccc(-n2cc3c(C(F)(F)F)cc(CN4CCN(CCc5ccc(N6CCN(c7ccc8c(c7)CN([C@H]7CCC(=O)NC7=O)C8=O)CC6)cc5)CC4)cn3c2=O)c1)C1CCC1 (single isomer, unassigned) [Compound 126] | 
> 10000 | < 30 | Cn1cnnc1[C@@H](c1cccc(-n2cc3c(C(F)(F)F)cc(CN4CCC[C@H](OCCc5ccc(CN6CCN(c7ccc8c(c7)CN([C@@H]7CCC(=O)NC7=O)C8=O)CC6)cc5)C4)cn3c2=O)c1)C1CCC1 (single isomer, unassigned) [Compound 127] | 
< 30 | 50 to 70 | Cn1cnnc1[C@@H](c1cccc(-n2cc3c(C(F)(F)F)cc(CN4CCC[C@H](OCCc5ccc(CN6CCN(c7ccc8c(c7)CN([C@H]7CCC(=O)NC7=O)C8=O)CC6)cc5)C4)cn3c2=O)c1)C1CCC1 (single isomer, unassigned) [Compound 128] | 
30 to 300 | 50 to 70 | Cn1cnnc1[C@@H](c1cccc(-n2cc3c(C(F)(F)F)cc(CN4CCN(C(=O)CN5CCC(CN6CCN(c7ccc8c(c7)CN([C@H]7CCC(=O)NC7=O)C8=O)CC6)CC5)CC4)cn3c2=O)c1)C1CCC1 (single isomer, unassigned) [Compound 130] | 
300 to 1000 |  | CN(CCN(C)C(=O)c1ccc(N2CCN(c3ccc4c(c3)CN([C@@H]3CCC(=O)NC3=O)C4=O)CC2)cc1)Cc1cc(C(F)(F)F)c2cn(-c3cccc([C@H](c4nncn4C)C4CCC4)c3)c(=O)n2c1 (single isomer, unassigned) [Compound 139] | 
30 to 300 |  | CN(CCN(C)C(=O)c1ccc(N2CCN(c3ccc4c(c3)CN([C@H]3CCC(=O)NC3=O)C4=O)CC2)cc1)Cc1cc(C(F)(F)F)c2cn(-c3cccc([C@H](c4nncn4C)C4CCC4)c3)c(=O)n2c1 (single isomer, unassigned) [Compound 140] | 
> 10000 | 30 to 50 | CN(CCN(C)C(=O)c1cc(C(F)(F)F)c2cn(-c3cccc([C@H](c4nncn4C)C4CCC4)c3)c(=O)n2c1)C(=O)c1ccc(N2CCN(c3ccc4c(c3)CN([C@H]3CCC(=O)NC3=O)C4=O)CC2)cc1 (single isomer, unassigned) [Compound 142] | 
< 30 | 50 to 70 | Cn1cnnc1[C@@H](c1cccc(-n2cc3c(C(F)(F)F)cc(CN4CCC[C@@H](OCCc5ccc(CN6CCN(c7ccc8c(c7)CN([C@H]7CCC(=O)NC7=O)C8=O)CC6)cc5)C4)cn3c2=O)c1)C1CCC1 (single isomer, unassigned) [Compound 144] | 
> 10000 | < 30 | Cn1cnnc1[C@@H](c1cccc(-n2cc3c(C(F)(F)F)cc(CN4CCC(OCc5cccc(C(=O)N6CCN(c7ccc8c(c7)CN([C@@H]7CCC(=O)NC7=O)C8=O)CC6)c5)CC4)cn3c2=O)c1)C1CCC1 (single isomer, unassigned) [Compound 153] | 
300 to 1000 | 30 to 50 | Cn1cnnc1[C@@H](c1cccc(-n2cc3c(C(F)(F)F)cc(CN4CCC(OCc5cccc(C(=O)N6CCN(c7ccc8c(c7)CN([C@H]7CCC(=O)NC7=O)C8=O)CC6)c5)CC4)cn3c2=O)c1)C1CCC1 (single isomer, unassigned) [Compound 154] | 
> 10000 | < 30 | Cn1cnnc1[C@@H](c1cccc(-n2cc3c(C(F)(F)F)cc(CN4CCC(OCc5ccc(N6CCN(c7ccc8c(c7)CN([C@@H]7CCC(=O)NC7=O)C8=O)CC6)cc5)CC4)cn3c2=O)c1)C1CCC1 (single isomer, unassigned) [Compound 155] | 
< 30 | 50 to 70 | Cn1cnnc1[C@@H](c1cccc(-n2cc3c(C(F)(F)F)cc(CN4CCC(OCc5ccc(N6CCN(c7ccc8c(c7)CN([C@H]7CCC(=O)NC7=O)C8=O)CC6)cc5)CC4)cn3c2=O)c1)C1CCC1 (single isomer, unassigned) [Compound 156] | 
> 10000 | < 30 | Cn1cnnc1[C@@H](c1cccc(-n2cc3c(C(F)(F)F)cc(CN4CCC(OCc5ccc(C(=O)N6CCN(c7ccc8c(c7)CN([C@@H]7CCC(=O)NC7=O)C8=O)CC6)cc5)CC4)cn3c2=O)c1)C1CCC1 (single isomer, unassigned) [Compound 157] | 
< 30 | > 70 | Cn1cnnc1[C@@H](c1cccc(-n2cc3c(C(F)(F)F)cc(CN4CCC(OCc5ccc(C(=O)N6CCN(c7ccc8c(c7)CN([C@H]7CCC(=O)NC7=O)C8=O)CC6)cc5)CC4)cn3c2=O)c1)C1CCC1 (single isomer, unassigned) [Compound 158] | 
